In ChEMBL document CHEMBL1687773 (Antimicrob Agents Chemother, 2010):

Experiments:
[1] = test system: Human immunodeficiency virus 1; assay: Antiviral activity against HIV1 NL4-3 infected in human MT2 cells assessed as inhibition of virus-induced cell death at 0.5 multiplicities of infection after 6 days; format: functional, organism-based; settings: Human immunodeficiency virus 1, NL4-3, MT2, 144 h
[2] = test system: Human immunodeficiency virus 1; assay: Antiviral activity against HIV1 NL4-3 harboring reverse transcriptase V108I, E138K mutant infected in human SupT1 cells derived from 9 viral passages with lersivirine assessed as inhibition of viral replication after 21 days relative to drug sensitive HIV1 NL4-3; format: functional, SUP-T1
[3] = test system: Human immunodeficiency virus 1; assay: Antiviral activity against HIV1 NL4-3 infected in human SupT1 cells derived from 11 viral passages assessed as inhibition of viral replication after 21 days relative to drug sensitive HIV1 NL4-3; format: functional, SUP-T1
[4] = test system: Human immunodeficiency virus 1; assay: Antiviral activity against HIV1 NL4-3 harboring reverse transcriptase V108I, E138K, F227F/L mutant infected in human SupT1 cells derived from 11 viral passages with lersivirine assessed as inhibition of viral replication after 21 days relative to drug sensitive HIV1 NL4-3; format: functional, SUP-T1
[5] = test system: Human immunodeficiency virus 1; assay: Antiviral activity against HIV1 NL4-3 harboring reverse transcriptase V108I, H221Y, F227F/L, M230M/I mutant infected in human SupT1 cells derived from 11 viral passages with lersivirine assessed as inhibition of viral replication after 21 days relative to drug sensitive HIV1 NL4-3; format: functional, SUP-T1
[6] = test system: Human immunodeficiency virus 1; assay: Antiviral activity against HIV1 NL4-3 harboring reverse transcriptase L100I, K103Q, H221H/Y mutant infected in human SupT1 cells derived from 11 viral passages with efavirenz assessed as inhibition of viral replication after 21 days relative to drug sensitive HIV1 NL4-3; format: functional, SUP-T1

Row | Compound | EC50 [1] [nM] | fold change (FC) [2] | fold change (FC) [3] | fold change (FC) [4] | fold change (FC) [5] | fold change (FC) [6]
1 | CC(C)(C)NC(=O)[C@@H]1CN(Cc2cccnc2)CCN1C[C@@H](O)C[C@@H](Cc1ccccc1)C(=O)N[C@H]1c2ccccc2C[C@H]1O | 0.5 |  |  |  |  | 
2 | C=C(C)[C@@H]1CC[C@]2(C(=O)O)CC[C@]3(C)[C@H](CC[C@@H]4[C@@]5(C)CC[C@H](OC(=O)CC(C)(C)C(=O)O)C(C)(C)[C@@H]5CC[C@]43C)[C@@H]12 [BEVIRIMAT] | 0.5 |  |  |  |  | 
3 | CC(C)Nc1cccnc1N1CCN(C(=O)c2cc3cc(NS(C)(=O)=O)ccc3[nH]2)CC1 [DELAVIRDINE] |  | 1.5 | 0.3 | 1.8 | 0.2 | 16.4
4 | Cc1cc(C#N)cc(C)c1Oc1nc(Nc2ccc(C#N)cc2)nc(N)c1Br [ETRAVIRINE] | 0.5 |  |  |  |  | 
5 | Cc1ccnc2c1NC(=O)c1cccnc1N2C1CC1 [NEVIRAPINE] |  | 0.9 | 0.2 | 12.2 | 6.4 | 1
6 | Cc1cn([C@H]2C[C@H](N=[N+]=[N-])[C@@H](CO)O2)c(=O)[nH]c1=O [ZIDOVUDINE] |  | 0.4 | 0.2 | 0.6 | 0.1 | 0.1
